Data: US5389639A, “Amino alkanoic esters of rapamycin” (American Home Products Company, priority 1993, dated 1995)
Like-named read-outs stand apart in the source and are kept apart here.

Assays:
[1] = test system: cells from the thymus of normal BALB/c mice (lymphocyte proliferation); assay: Comitogen-induced thymocyte proliferation procedure (LAF); format: cell-based; settings: Mus musculus
Description: (§1) Immunosuppressive activity for representative compounds of this invention was evaluated in an in vitro standard pharmacological test procedure to measure lymphocyte proliferation (LAF) and in an in vivo standard pharmacological test procedure which evaluated the survival time of a pinch skin graft.
The comitogen-induced thymocyte proliferation procedure (LAF) was used as an in vitro measure of the immunosuppressive effects of representative compounds. Briefly, cells from the thymus of normal BALB/c mice are cultured for 72 hours with PHA and IL-1 and pulsed with tritiated thymidine during the last six hours. Cells are cultured with and without various concentrations of rapamycin, cyclosporin A, or test compound. Cells are harvested and incorporated radioactivity is determined. Inhibition of lymphoproliferation is assessed as percent change in counts per minute from non-drug treated controls. For each compound evaluated, rapamycin was also evaluated for the purpose of comparison. An IC50 was obtained for each test compound as well as for rapamycin. […] The results obtained for the representative compounds of this invention are presented as IC50s.

[2] = test system: pinch skin graft from male BALB/c donors transplanted to male C3H(H-2K) recipients; assay: Survival time of pinch skin graft; format: in vivo, mouse; settings: 4 mg/kg; intraperitoneally or orally; untreated usually rejected within 6-7 days
Description: as §1
Representative compounds of this invention were also evaluated in an in vivo test procedure designed to determine the survival time of pinch skin graft from male BALB/c donors transplanted to male C3 H(H-2K) recipients. The method is adapted from Billingham R. E. and Medawar P. B., J. Exp. Biol. 28:385-402, (1951). Briefly, a pinch skin graft from the donor was grafted on the dorsum of the recipient as a allograft, and an isograft was used as control in the same region. The recipients were treated with either varying concentrations of test compounds intraperitoneally or orally. Rapamycin was used as a test control. Untreated recipients serve as rejection control. The graft was monitored daily and observations were recorded until the graft became dry and formed a blackened scab. This was considered as the rejection day. The mean graft survival time (number of days ±S.D.) of the drug treatment group was compared with the control group. […] Results are expressed as the mean survival time in days. Untreated (control) pinch skin grafts are usually rejected within 6-7 days. The results shown in Table 1 are based on a dose of 4 mg/kg of test compound. A survival time of 11.67±0.63 days was obtained for rapamycin at 4 mg/kg.

[3] = Relative oral potency: oral and i.p. ED50s in the skin graft test procedure; format: in vivo; settings: mouse, ratio of oral and i.p. ED50s, p.o. 40, 10, 2.5 mg/kg, i.p. 4, 1, 0.25 mg/kg, 6 consecutive days, data obtained in cremophor, lower ratio = greater oral bioavailability
Description: The relative oral potency is determined by comparing the oral and i.p. ED50s obtained in the skin graft standard pharmacological test procedure. Briefly, the compound to be tested is evaluated at the doses of 40, 10, and 2.5 mg/kg for p.o. administration and 4, 1, and 0.25 mg/kg for i.p. administration, both administered for 6 consecutive days in the skin graft test procedure so that a dose response curve can be generated for both oral and i.p. administration. The data are subjected to a parallel line analysis and an oral and i.p. ED50 is calculated for the compound tested, and the ED50s are expressed as a ratio according to the following formula: [formula]
When comparing oral potency for different compounds that have been evaluated, the lower the ratio, the greater the oral bioavailability. The oral bioavailability serves as a measure of oral potency.

Candida albicans = settings: particularly against Candida albicans, both in vitro and in vivo; cited from earlier work
[4] = test system: experimental allergic encephalomyelitis; settings: model for multiple sclerosis; cited from earlier work
adjuvant arthritis = settings: model for rheumatoid arthritis; cited from earlier work
[5] = 72 hours with PHA and IL-1, tritiated thymidine during last six hours, read-out: LAF IC50

SMILES	IC50 [1, 5]	Skin Graft mean survival time (days ± SD) [2]	other results
CO[C@H]1C[C@@H]2CC[C@@H](C)[C@@](O)(O2)C(=O)C(=O)N2CCCC[C@H]2C(=O)O[C@H]([C@H](C)C[C@@H]2CC[C@@H](OC(=O)C[C@H](NC(=O)OCc3ccccc3)C(=O)O)[C@H](OC)C2)CC(=O)[C@H](C)/C=C(\C)[C@@H](O)[C@@H](OC)C(=O)[C@H](C)C[C@H](C)/C=C/C=C/C=C/1C [Example 1, Rapamycin 42-ester with (S)-3-carboxy-3-[[[phenylmethoxy]carbonyl]amino]-propanoic acid]	10.7 nM	10.00 ± 0.00 days	–
CO[C@H]1C[C@@H]2CC[C@@H](C)[C@@](O)(O2)C(=O)C(=O)N2CCCC[C@H]2C(=O)O[C@H]([C@H](C)C[C@@H]2CC[C@@H](OC(=O)C[C@H](N)C(=O)O)[C@H](OC)C2)CC(=O)[C@H](C)/C=C(\C)[C@@H](O)[C@@H](OC)C(=O)[C@H](C)C[C@H](C)/C=C/C=C/C=C/1C [Example 3, Rapamycin 42-ester with (S)-3-amino-3-carboxypropanoic acid]	2.5 nM	10.17 ± 0.75 days	–
CCCOC(=O)N[C@@H](CCC(=O)O[C@@H]1CC[C@@H](C[C@@H](C)[C@@H]2CC(=O)[C@H](C)/C=C(\C)[C@@H](O)[C@@H](OC)C(=O)[C@H](C)C[C@H](C)/C=C/C=C/C=C(\C)[C@@H](OC)C[C@@H]3CC[C@@H](C)[C@@](O)(O3)C(=O)C(=O)N3CCCC[C@H]3C(=O)O2)C[C@H]1OC)C(=O)O [Example 4, Rapamycin 42-ester with (S)-4-carboxy-4-[[[propyloxy]carbonyl]amino]butanoic acid]	3.2 nM	11.00 ± 1.00 days	–
CCCOC(=O)N[C@H](CCC(=O)O[C@@H]1CC[C@@H](C[C@@H](C)[C@@H]2CC(=O)[C@H](C)/C=C(\C)[C@@H](O)[C@@H](OC)C(=O)[C@H](C)C[C@H](C)/C=C/C=C/C=C(\C)[C@@H](OC)C[C@@H]3CC[C@@H](C)[C@@](O)(O3)C(=O)C(=O)N3CCCC[C@H]3C(=O)O2)C[C@H]1OC)C(=O)O [Example 5, Rapamycin 42-ester with (R)-4-carboxy-4[[[propyloxy]carbonyl]amino]-butanoic acid]	3.9 nM	10.83 ± 0.75 days	–
CO[C@H]1C[C@@H]2CC[C@@H](C)[C@@](O)(O2)C(=O)C(=O)N2CCCC[C@H]2C(=O)O[C@H]([C@H](C)C[C@@H]2CC[C@@H](OC(=O)CC[C@H](N)C(=O)O)[C@H](OC)C2)CC(=O)[C@H](C)/C=C(\C)[C@@H](O)[C@@H](OC)C(=O)[C@H](C)C[C@H](C)/C=C/C=C/C=C/1C [Example 7, Rapamycin 42-ester with (S)-4-amino-4-carboxy-butanoic acid]	14 nM	10.80 ± 0.40 days	–
CO[C@H]1C[C@@H]2CC[C@@H](C)[C@@](O)(O2)C(=O)C(=O)N2CCCC[C@H]2C(=O)O[C@H]([C@H](C)C[C@@H]2CC[C@@H](OC(=O)CC[C@@H](N)C(=O)O)[C@H](OC)C2)CC(=O)[C@H](C)/C=C(\C)[C@@H](O)[C@@H](OC)C(=O)[C@H](C)C[C@H](C)/C=C/C=C/C=C/1C [Example 9, Rapamycin 42-ester with (R)-4-amino-4-carboxybutanoic acid]	7.8 nM	11.20 ± 1.00 days	–
CO[C@H]1C[C@@H]2CC[C@@H](C)[C@@](O)(O2)C(=O)C(=O)N2CCCC[C@H]2C(=O)O[C@H]([C@H](C)C[C@@H]2CC[C@@H](OC(=O)CC[C@H](NC(=O)OCc3ccccc3)C(=O)O)[C@H](OC)C2)CC(=O)[C@H](C)/C=C(\C)[C@@H](O)[C@@H](OC)C(=O)[C@H](C)C[C@H](C)/C=C/C=C/C=C/1C [Example 10]	27.1 nM	10.17 ± 0.41 days	–
CO[C@H]1C[C@@H]2CC[C@@H](C)[C@@](O)(O2)C(=O)C(=O)N2CCCC[C@H]2C(=O)O[C@H]([C@H](C)C[C@@H]2CC[C@@H](OC(=O)CC[C@H](N)C(=O)OC(C)(C)C)[C@H](OC)C2)CC(=O)[C@H](C)/C=C(\C)[C@@H](O)[C@@H](OC)C(=O)[C@H](C)C[C@H](C)/C=C/C=C/C=C/1C [Example 11, Rapamycin 42-ester with-(S)-4-amino-5-(1,1-dimethylethoxy)-5-oxo-pentanoic acid]	1.1 nM	11.50 ± 1.05 days	selectivity ratio [3]: 5.6
CO[C@H]1C[C@@H]2CC[C@@H](C)[C@@](O)(O2)C(=O)C(=O)N2CCCC[C@H]2C(=O)O[C@H]([C@H](C)C[C@@H]2CC[C@@H](OC(=O)CC[C@H](NC(=O)OC(C)(C)C)C(=O)OC(C)(C)C)[C@H](OC)C2)CC(=O)[C@H](C)/C=C(\C)[C@@H](O)[C@@H](OC)C(=O)[C@H](C)C[C@H](C)/C=C/C=C/C=C/1C [Rapamycin 42-ester with (S)-5-tert-butoxy-4-tert-butoxycarbonylamino-5-oxo-pentanoic acid, reference compound]	–	–	selectivity ratio [3]: 188
CO[C@H]1C[C@@H]2CC[C@@H](C)[C@@](O)(O2)C(=O)C(=O)N2CCCC[C@H]2C(=O)O[C@H]([C@H](C)C[C@@H]2CC[C@@H](O)[C@H](OC)C2)CC(=O)[C@H](C)/C=C(\C)[C@@H](O)[C@@H](OC)C(=O)[C@H](C)C[C@H](C)/C=C/C=C/C=C/1C [rapamycin]	–	11.67 ± 0.63 days	IC50 ([1]; read-out: IC50 of rapamycin as comparator (LAF)): 2.8 to 11.6 nM; antifungal activity (Candida albicans): antifungal activity; effect in the experimental allergic encephalomyelitis model [4]: effective; effect in the adjuvant arthritis model (adjuvant arthritis): effective
